# Test results from ChEMBL document CHEMBL1201862, “PubChem BioAssay data set” (2004).
# Active and inactive are the calls of the source.
# Legend:
# [1] = growth suppression of beta-catenin-knockout colon cells, dose response, cell-based, HCT116, human colon tumor (AID 1045); type: functional;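 further: HCT116 colon tumor cells with beta catenin knocked out; cells exposed to compound for 60 hours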
# [2] = growth suppression of PTEN-null colon cells, dose response, cell-based, HCT116 PTEN knockout (AID 1047); type: functional;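 further: HCT116 colon tumor cells with PTEN knocked out; cells exposed to compound for 60 hours before readout; potency for loss of cell viability measured by luminescence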
# [3] = biological target: FAD-linked sulfhydryl oxidase ALR (Homo sapiens, UniProt P55789); assay: inhibitors of human ALR sulfhydryl oxidase, dose response, biochemical, H2O2 detection, luminescence, cherry-pick (AID 493248)
# Sequence of FAD-linked sulfhydryl oxidase ALR (P55789 whole entry): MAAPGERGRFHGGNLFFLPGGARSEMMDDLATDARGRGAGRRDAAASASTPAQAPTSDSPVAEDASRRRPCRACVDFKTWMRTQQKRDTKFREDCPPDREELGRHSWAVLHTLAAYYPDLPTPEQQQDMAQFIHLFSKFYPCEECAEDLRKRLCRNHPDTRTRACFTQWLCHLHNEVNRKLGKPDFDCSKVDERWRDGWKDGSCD
# [4] = NIH-3T3 fibroblast cytotoxicity, dose response, cytotoxicity control, cell-based, fluorescence, Alamar Blue, secondary assay (AID 2327); type: functional;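 further: NIH-3T3 mouse fibroblasts cultured with fluconazole at 8 µg/mL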
# [5] = C. albicans growth with fluconazole, confirmation, fluorescence, retest (AID 2467); type: functional, cell-based
# Large T antigen = Large T antigen (Simian virus 40, UniProt P03070); type: functional, Betapolyomavirus macacae;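 further: Confirmatory-stage PubChem screen for compounds that inhibit SV40 T antigen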
# Sequence of Large T antigen (P03070 whole entry): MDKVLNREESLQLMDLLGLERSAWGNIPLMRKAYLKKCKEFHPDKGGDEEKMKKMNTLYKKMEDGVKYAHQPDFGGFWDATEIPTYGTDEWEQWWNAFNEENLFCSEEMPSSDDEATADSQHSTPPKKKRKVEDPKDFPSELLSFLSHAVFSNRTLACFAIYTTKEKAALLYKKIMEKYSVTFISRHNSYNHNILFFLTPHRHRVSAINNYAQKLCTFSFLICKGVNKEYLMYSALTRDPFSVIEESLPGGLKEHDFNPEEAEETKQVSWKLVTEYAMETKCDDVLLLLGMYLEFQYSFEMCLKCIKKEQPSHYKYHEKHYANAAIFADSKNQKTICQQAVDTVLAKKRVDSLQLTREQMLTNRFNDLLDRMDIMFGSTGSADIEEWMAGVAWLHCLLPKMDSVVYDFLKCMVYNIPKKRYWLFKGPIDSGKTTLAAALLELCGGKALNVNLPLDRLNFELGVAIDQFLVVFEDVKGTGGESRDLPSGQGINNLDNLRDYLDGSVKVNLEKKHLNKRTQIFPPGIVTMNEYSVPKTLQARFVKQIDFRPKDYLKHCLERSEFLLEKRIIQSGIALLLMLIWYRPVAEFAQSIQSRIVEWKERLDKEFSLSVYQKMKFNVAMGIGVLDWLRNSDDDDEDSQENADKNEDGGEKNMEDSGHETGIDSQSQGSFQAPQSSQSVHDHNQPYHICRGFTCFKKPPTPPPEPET
# [6] = biological target: T1, Calpain-2 catalytic subunit (Sus scrofa, UniProt P43367); assay: pig calpain II inhibitor potency, dose response, biochemical, fluorogenic peptide substrate (AID 1420); type: functional
# T1 sequence (P43367 whole entry): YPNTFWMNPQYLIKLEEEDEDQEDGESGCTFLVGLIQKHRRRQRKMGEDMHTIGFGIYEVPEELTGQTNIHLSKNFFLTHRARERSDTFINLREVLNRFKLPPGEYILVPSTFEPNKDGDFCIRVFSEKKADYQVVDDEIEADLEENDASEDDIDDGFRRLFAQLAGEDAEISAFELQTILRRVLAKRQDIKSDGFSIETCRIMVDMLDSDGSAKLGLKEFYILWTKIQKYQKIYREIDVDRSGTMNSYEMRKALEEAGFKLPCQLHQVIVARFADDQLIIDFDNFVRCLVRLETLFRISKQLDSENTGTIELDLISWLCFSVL
# [7] = cytotoxicity toward NIH3T3 fibroblasts, dose response, counter-screen, cell-based, ATP luminescence, mouse fibroblasts (AID 2010); type: functional;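 further: cells exposed to compound for about 90 hours before reading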
# [8] = inhibitors of intracellular T. cruzi replication, confirmation, NIH3T3 host cells, beta-gal luminescence (AID 2044); type: functional, cell-based;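 further: intracellular parasites grown in NIH/3T3 mouse fibroblasts as host cells; luminescent beta-galactosidase reporter signal from transgenic T. cruzi replicating inside host cells; inhibitors lower the luminescence signal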
# [9] = biological target: T2, Carboxy-terminal domain RNA polymerase II polypeptide A small phosphatase 1 (Homo sapiens, UniProt Q9GZU7); assay: inhibitors of CTDSP1, concentration-response testing, biochemical assay, absorbance-based, actives from ultra-high-throughput screening (AID 540297); type: functional
# T2 sequence (Q9GZU7 whole entry): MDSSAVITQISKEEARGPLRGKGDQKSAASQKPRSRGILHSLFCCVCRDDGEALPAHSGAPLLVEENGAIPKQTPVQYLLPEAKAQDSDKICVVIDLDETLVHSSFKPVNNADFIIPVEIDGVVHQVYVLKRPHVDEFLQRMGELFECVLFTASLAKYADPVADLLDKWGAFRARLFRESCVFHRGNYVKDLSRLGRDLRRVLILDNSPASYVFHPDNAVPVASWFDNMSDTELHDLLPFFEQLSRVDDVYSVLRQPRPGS
# Protein skinhead-1 = biological target: T3, Protein skinhead-1 (Caenorhabditis elegans, UniProt P34707); type: functional
# T3 sequence (P34707 whole entry): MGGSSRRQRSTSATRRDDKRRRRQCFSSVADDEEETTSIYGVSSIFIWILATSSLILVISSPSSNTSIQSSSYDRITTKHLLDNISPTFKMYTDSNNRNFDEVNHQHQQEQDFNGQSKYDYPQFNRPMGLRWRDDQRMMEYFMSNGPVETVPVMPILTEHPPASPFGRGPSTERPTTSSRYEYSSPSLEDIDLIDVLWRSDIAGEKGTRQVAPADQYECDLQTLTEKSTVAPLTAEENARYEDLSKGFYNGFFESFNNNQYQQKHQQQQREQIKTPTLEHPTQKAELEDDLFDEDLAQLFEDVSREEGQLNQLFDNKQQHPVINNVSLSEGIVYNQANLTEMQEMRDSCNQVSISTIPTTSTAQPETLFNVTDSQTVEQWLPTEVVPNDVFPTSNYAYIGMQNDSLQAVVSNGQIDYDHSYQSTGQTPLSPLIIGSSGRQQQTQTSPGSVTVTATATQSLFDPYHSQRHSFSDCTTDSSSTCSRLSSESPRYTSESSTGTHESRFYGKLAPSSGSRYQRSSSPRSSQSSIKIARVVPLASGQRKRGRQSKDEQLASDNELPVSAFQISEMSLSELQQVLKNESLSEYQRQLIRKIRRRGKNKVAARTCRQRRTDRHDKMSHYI
# [10] = HEp-2 cell cytotoxicity, dose response, cytotoxicity control for RSV inhibitor project, HTS (AID 2410); type: functional; conditions: human respiratory syncytial virus
# [11] = Luminescence Cell-Based Dose Confirmation HTS to Identify Activators of 5'UTR Stem-Loop Driven Alpha-Synuclein mRNA Translation in H4 Neuroglioblastoma Cells. [Related pubchem assays: 1829 (Project Summary), 1814 (Primary HTS)]; type: functional
# H4 = assay: Luminescence Cell-Based Dose Response HTS to Identify Activators of 5'UTR Stem-Loop Driven Prion Protein mRNA Translation in H4 Neuroglioblastoma Cells. [Related pubchem assays: 1829 (Project Summary), 1814 (Primary HTS)]; type: functional; conditions: Homo sapiens
# [12] = Luminescence Cell-Based Dose Response HTS to Identify Activators of Luciferase Translation or Activity in H4 […] Cells. [Related pubchem assays: 1829 (Project Summary), 1814 (Primary HTS)]; type: functional
# [13] = system: Streptococcus sp. 'group A'; assay: growth inhibition of control SK(-) GAS strain, dose response, counter-screen for streptokinase expression inhibitor project, luminescence, kanamycin, BacTiterGlo, confirmation (AID 1900); type: functional, organism-based
# Streptococcus = assay: Group A Streptococcus viability loss, dose response, counter-screen for streptokinase expression inhibitor project, luminescence, BacTiterGlo (AID 1915); type: functional, organism-based;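 further: potency for reduction of bacterial viability or growth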
# Streptokinase A = biological target: T4, Streptokinase A (Streptococcus pyogenes serotype M1, UniProt P10520); assay: S. pyogenes streptokinase expression inhibitors, potency, dose response, plasminogen activation absorbance, OD405 (AID 1914); type: functional, Streptococcus pyogenes M1 GAS;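 further: secreted streptokinase activity via plasminogen activation per viability signal from cell pellet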
# T4 sequence (P10520 whole entry): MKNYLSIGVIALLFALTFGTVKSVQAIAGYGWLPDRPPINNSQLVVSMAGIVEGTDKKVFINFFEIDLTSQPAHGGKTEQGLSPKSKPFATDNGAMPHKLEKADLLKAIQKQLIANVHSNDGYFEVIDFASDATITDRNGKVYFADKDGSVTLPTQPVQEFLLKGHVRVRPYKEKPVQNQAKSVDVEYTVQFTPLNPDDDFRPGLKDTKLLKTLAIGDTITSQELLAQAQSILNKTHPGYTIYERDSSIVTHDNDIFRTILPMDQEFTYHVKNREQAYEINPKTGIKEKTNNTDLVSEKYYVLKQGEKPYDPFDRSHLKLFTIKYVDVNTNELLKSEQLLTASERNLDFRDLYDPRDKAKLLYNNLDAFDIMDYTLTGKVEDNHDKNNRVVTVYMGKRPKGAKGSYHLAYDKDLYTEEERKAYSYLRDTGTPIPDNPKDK
# Paired box protein Pax-8 = Paired box protein Pax-8 (Homo sapiens, UniProt Q06710); assay: inhibitors of PAX8-driven TPO luciferase reporter, dose response, RMG-I cells, cherry-pick (AID 687027); type: functional, cell-based;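 further: luciferase reporter driven by Pax8 target thyroperoxidase promoter measured by SteadyGlo luminescence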
# Sequence of Paired box protein Pax-8 (Q06710 whole entry): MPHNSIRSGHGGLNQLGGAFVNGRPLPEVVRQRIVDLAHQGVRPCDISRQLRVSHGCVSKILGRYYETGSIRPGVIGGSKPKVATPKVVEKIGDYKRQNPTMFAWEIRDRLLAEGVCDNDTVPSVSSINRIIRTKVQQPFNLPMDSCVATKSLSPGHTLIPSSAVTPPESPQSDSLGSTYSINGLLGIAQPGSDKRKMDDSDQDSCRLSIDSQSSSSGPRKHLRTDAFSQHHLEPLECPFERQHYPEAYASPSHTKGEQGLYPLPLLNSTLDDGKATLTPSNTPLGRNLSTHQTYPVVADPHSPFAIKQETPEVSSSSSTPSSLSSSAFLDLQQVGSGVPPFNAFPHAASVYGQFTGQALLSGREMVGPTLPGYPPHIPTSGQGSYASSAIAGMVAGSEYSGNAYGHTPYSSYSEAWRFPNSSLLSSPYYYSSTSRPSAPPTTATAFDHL
smiles,measurement,setting,value
CCc1ccc(-c2nc(CSCC(=O)N3CCN(c4ncccn4)CC3)c(C)o2)cc1,EC50,[1],29.8 µM (active)
same,EC50,[2],53.6 µM (active)
CSCc1ccc(C(=O)NC(C)c2ccc(-n3ccnc3)cc2)cc1 (stereo unspecified),AC50,[3],1.33 µM (active)
CCN(CC)C(=O)/C(=C/c1ccc2c(c1)OCO2)NC(=O)c1ccc(Br)cc1,EC50,[4],> 150 µM (inactive)
same,EC50,[5],3.58 µM (active)
CC1CCc2cc(F)ccc2N1C(=O)CSc1n[nH]c2c3ccccc3nc-2n1 (stereo unspecified),EC50,[1],22.5 µM (active)
same,EC50,[2],19 µM (active)
CCc1cc2c(Nc3ccc(O)cc3)nc(C)nc2s1,IC50,Large T antigen,23.7 µM (active)
O=C(CC1C(=O)NCCN1Cc1ccc(F)cc1)NCCN1CCCc2ccccc21 (stereo unspecified),AC50,[3],3.16 µM (active)
COc1ccc([N+](=O)[O-])cc1NC(=O)CSc1ccc2ccccc2c1,IC50,[6],2.92 µM (not active)
CN(C)c1ccc(/C=C/c2cc[n+](C)cc2)cc1,EC50,[7],> 60 µM (not active)
same,AC50,[3],0.416 µM (active)
same,EC50,[8],0.723 µM (active)
CCCCNC(=O)COC(=O)c1c2c(nc3ccccc13)CCC2,IC50,[9],9.63 µM (active)
CCOc1ccc(-c2nnc(-c3ccccc3)o2)cc1,IC50,Protein skinhead-1,> 100 µM (inactive)
CCOc1c(Br)cc(CNc2ccc(N3CCN(C(C)=O)CC3)cc2)cc1OC,IC50,Large T antigen,6.23 µM (active)
COc1c(Cl)cc(C(=O)Nc2ccccc2-c2ccccc2)cc1Cl,IC50,[6],> 50 µM (not active)
CNC(=O)COC(=O)CNC(=O)c1cc(Cl)cc([N+](=O)[O-])c1,IC50,[6],> 50 µM (not active)
Fc1ccc(CSc2ncnc3ccccc23)cc1,IC50,Protein skinhead-1,31.8 µM (active)
CCN(CC)c1ccc(NC(=O)CSc2nc3nc(C)cc(C)c3c(=O)[nH]2)cc1,IC50,Large T antigen,10.2 µM (active)
Clc1cccc(CSc2ccc(-c3ccco3)nn2)c1,CC50,[10],> 50 µM (active)
same,IC50,Protein skinhead-1,99.9 µM (inactive)
CC1=C(C(=O)c2ccccc2)C(c2ccc(O)cc2)NC(S)=N1 (stereo unspecified),IC50,Large T antigen,> 100 µM (active)
CCCCCCCCC(=O)NNC(=O)c1c(O)c2ccccc2n(CC)c1=O,EC50,[4],> 150 µM (inactive)
same,EC50,[5],2.96 µM (active)
Cc1cccc(Nc2ncccc2C(=O)NCc2cccs2)c1C,IC50,[6],14.4 µM (not active)
O=C(C1CCC(=O)N(C2CC2)C1)N1CCN(c2ccc(Cl)cc2)CC1 (stereo unspecified),AC50,[3],15.8 µM (active)
CC(NC(=O)C(=O)N1CCCCC1)C(c1cccs1)N1CCN(c2ccccc2)CC1 (stereo unspecified),AC50,[3],1.16 µM (active)
Cc1cc(NC(=O)CSc2nnc(-c3ccncc3)n2-c2ccc(F)cc2)no1,IC50,Protein skinhead-1,> 100 µM (inactive)
CCc1cc2c(=O)n(Cc3ccccc3)c(SC3CCOC3=O)nc2s1 (stereo unspecified),IC50,[6],12.6 µM (not active)
CCOC(=O)c1c(NC(=O)C2CCCN(S(=O)(=O)c3ccccc3)C2)sc2c1CCCC2 (stereo unspecified),EC50,[1],73.3 µM (active)
same,EC50,[2],50.9 µM (active)
COc1ccc(Cl)cc1NC(=O)CSc1ncnc2c1oc1ccccc12,EC50,[1],6.22 µM (active)
same,EC50,[2],4.25 µM (active)
c1cnc2c(OCc3nc4ccccc4[nH]3)cccc2c1,EC50,[11],0.396 µM (active)
same,IC50,[6],7.55 µM (not active)
same,EC50,H4,5.66 µM (active)
same,EC50,[12],7.06 µM (active)
O=C(Nc1ccnc(O)n1)c1sc2ccccc2c1Cl,IC50,[9],16.2 µM (active)
Cc1ccc(C(=O)N(Cc2ccccc2)C(C)(C)C)cc1C,IC50,[6],16.6 µM (not active)
CCCOc1ccc(N2C(=O)CC(N(CCc3ccc(OC)cc3)C(=O)c3cccc(F)c3)C2=O)cc1 (stereo unspecified),IC50,Protein skinhead-1,> 100 µM (inactive)
Cc1c(C=O)c2ccccc2n1CC(=O)NC(C)c1ccccc1 (stereo unspecified),IC50,[6],> 50 µM (not active)
Cc1cc(C2=NN=C(NC3CC3)SC2)c(C)n1-c1ccccc1,EC50,[1],19.5 µM (active)
same,EC50,[2],23.7 µM (active)
COc1ccc(Nc2ccc(Cl)cc2)c(C(=O)O)c1,IC50,Large T antigen,18 µM (active)
Cc1ccc(-c2nc3ccc(Cl)cc3c(=O)n2O)cc1,EC50,[4],> 160 µM (inactive)
same,EC50,[5],1.58 µM (active)
CCCCN(CC)CCCN=C(S)Nc1ccc2nc3n(c(=O)c2c1)CCCCC3,EC50,[7],> 60 µM (not active)
same,IC50,[6],< 0.4 µM (not active)
same,EC50,[8],1.29 µM (active)
O=C1CSC(c2cccc(F)c2)N1c1ccccc1 (stereo unspecified),AC50,[3],1.22 µM (active)
CCOc1ccccc1NC(=O)Cn1c(=O)oc2cc(Cl)ccc21,IC50,Protein skinhead-1,> 100 µM (inactive)
O=C(COC(=O)CCNS(=O)(=O)c1ccccc1)Nc1ccc(OC(F)F)cc1,IC50,Protein skinhead-1,> 100 µM (inactive)
O=C(N/N=C/c1c[nH]c2ccccc12)c1[nH]c2ccc(Br)cc2c1-c1ccccc1,EC50,[1],0.378 µM (active)
same,EC50,[13],1.29 µM (active)
same,EC50,[2],0.412 µM (active)
same,EC50,Streptococcus,2.22 µM (active)
same,EC50,Streptokinase A,> 150 µM (not active)
same,AC50,Paired box protein Pax-8,3.5 µM (active)
Cc1nn(-c2ccccc2)c(N2CCCC2)c1/C=N/Nc1ccc(S(=O)(=O)Nc2ccccc2)cc1[N+](=O)[O-],EC50,[1],9.37 µM (active)
same,EC50,[2],6.74 µM (active)
